Laboratory results as given in patent US8455435B2, “Remedies for ischemia” (Ludwig-Maximilians-Universitat Munchen, priority 2006, dated 2013).
Where “and” joins values, the source holds several entries; their conditions need not be identical. Equal entries are not always repeated.

What was measured:
[1] = tested on: CD45+/CD34+ and CD45+/CD34- cell populations in peripheral blood; assay: Flow cytometry of peripheral blood mononuclear cells after PTH or G-CSF in healthy mice; format: in vivo, C57BL/6 mice
Protocol: (§1) For the experiments healthy age- and sex-matched (male, 8-12 weeks of age) C57BL/6 mice (Charles River) were used. Animal care and all experimental procedures were performed in strict accordance to the German and National Institutes of Health animal legislation guidelines and were approved by the local animal care and use committees.
(§2) Mice were divided into the following groups: 1) administration of saline daily for 6 days, sacrificed at day 7 (n=6). 2) administration of PTH (Bachem) daily for 6 consecutive days (80 μg per kg body weight per day, intraperitoneally), sacrificed at day 7 (n=6). 3) administration of PTH daily for 14 consecutive days, sacrificed at day 15 (n=6). 4) administration of G-CSF (Amgen Biologicals) daily for 5 consecutive days (200 μg per kg body weight per day, intraperitoneally), sacrificed at day 6 (n=6).
(§3) at day 6, 1 ml of peripheral blood was harvested from each mouse by aspirating the carotid artery. Bone marrow cells were obtained by flushing the tibias and femurs from the euthanized mice. Mononuclear cells were separated by density-gradient centrifugation using 1.077 g/mL Histopaque solution (Sigma Chemicals), purified and resuspended in phosphate-buffered saline (PBS) containing 1% bovine serum albumin. Cells were incubated for 40 minutes in the dark at 4° C. with following fluorescein-isothiocyanate (FITC), phycoerythrin (PE), and peridinin-chlorphyll-protein (PerCP) conjugated monoclonal antibodies: CD45-PerCP, C34-FITC, CD31-PE, Sca-1-PE and c-kit-PE (all from BD Pharmingen). Isotype-identical antibodies (BD Pharmingen) served as controls. Cells were analyzed by 3-color flow cytometry using a Coulter® Epics® XL-MCL™ flow cytometer (Beckman Coulter). Each analysis included 20000 events. The absolute number of antigen-positive cells per ml of whole blood was calculated by multiplying the percentage of antigen-positive cells with the total number of mononuclear cells per ml of blood detected by the conventional hematological cell analyzer. The number of lymphocytes together with the number of monocytes comprised the total number of mononuclear cells.

[2] = tested on: CD45+/CD34+ and CD45+/CD34- cell populations in bone marrow; assay: Flow cytometry of bone marrow cells after PTH or G-CSF in healthy mice; format: in vivo, C57BL/6 mice
Protocol: as §1, §2, §3

infarcted left ventricle = assay: Histology: infarct size, wall thickness, infarct composition after MI, PTH treatment; format: in vivo, C57BL/6 mice; settings: for LV-infarct size (area of necrosis and granulation tissue): day 6, % of total LV area
Protocol: (§4) Myocardial infarction was induced in male C57BL/6 mice 8-12 weeks of age by surgical occlusion of the left anterior descending artery (LAD) through a left anterolateral approach. Mice were anesthetized by intraperitoneal injection of a mixture of 100 mg/kg ketamine (Sigma Chemical Co., St. Louis, Mo.) and 5 mg/kg Xylazine (Sigma), intubated and artificially ventilated by a mouse ventilator (HUGO SACHS, March, Germany) with 200 strokes/min and 200 μl/stroke. Animal care and all experimental procedures were performed in strict accordance to the German and National Institutes of Health animal legislation guidelines and were approved by the local animal care and use committees.
(§5) After occlusion of the LAD, mice were divided into the following groups 1) subcutaneous administration of saline daily for 5 days, sacrificed at day 6 (n=10) and day 30 (n=15); 2) administration of rat PTH (1-34) daily for 5 and 14 consecutive days (80 μg/kg/d s.c., Bachem), sacrificed at day 6 (n=9) and day 30 (n=15); 3) sham operated animals sacrificed at day 30 (n=5), and not operated control animals receiving saline (n=6) sacrificed at day 6 and at day 30. All animals received BrdU ([…]) for 5 consecutive days. BrdU and cytokine treatment were started 12-24 hours after LAD occlusion.
At day 6 (n=10) and day 30 (n=10), hearts were excised. After fixation in 4% phosphate buffered formalin the hearts were cut transversally into 2 mm thick slices and embedded in paraffin. 4 μm thick sections were cut and mounted on positively charged glass slides. Standard histological procedures (hematoxilin/eosin and Masson trichrome) and immunostaining (see below) were performed.
Infarct size was determined as area of infarction (Al) correlated to the area of the left ventricle (including LV-septum) in four different slices from the base to the apex of a heart. Total infarct size was calculated by multiplication of the mean percentage value of the circular infarct area with the quotient: vertical extension of the infarct area/total ventricular extension. Wall thickness was measured by taking the average length of five segments along radii from the centre of the left ventricle through the thinnest points of the free LV wall and the septal wall. All studies were performed by a blinded pathologist.

myocardial infarction = assay: Survival after myocardial infarction (LAD occlusion), PTH treatment; format: in vivo, C57BL/6 mice; settings: 4 weeks after myocardial infarction, PTH 80 μg/kg/d s.c.
Protocol: as §4
as §5, with “BrdU and cytokine treatment were started 12-24 hours after LAD occlusion.” left out
Results were expressed as mean±S.E.M. For statistical analyses the unpaired Student's t-test was used. Mortality was analyzed by the Kaplan-Meier-method. […]

CD31 positive vessels = assay: Neovascularization (CD31 positive vessels) in granulation tissue after MI, PTH treatment; format: in vivo, mice; settings: infarct and borderzone after PTH treatment
Excerpt: C) Representative staining of CD31 positive vessels (left: 100×, right: 400×) in the granulation tissue harboring the borderzone of PTH treated (upper row) and saline treated animals (lower row). […] All sections nuclei (blue) were counterstained with hematoxyline. *p<0.05 saline vs. PTH.

rat PTH (1-34)
increase of subpopulations of CD45+/CD34+ and CD45+/CD34- cells ([1]; PTH 80 μg/kg/d for 6 or 14 days, peripheral blood): 1.5- to 9.8 fold
mobilization of CD45+/CD34+ cells by PTH compared to G-CSF treatment ([1]; PTH 80 μg/kg/d vs G-CSF 200 μg/kg/d 5 days): 20-50%
subtypes of CD45+/CD34+ and CD45+/CD34- cells in peripheral blood ([1]; PTH day 6 and day 14, G-CSF day 6): significant increase
mobilization of stem cells which express c-kit ([1]; in comparison to a control): 5 fold
number of mobilized subtypes of CD45+/CD34+ cells, PTH compared with G-CSF ([1]; peripheral blood): significant lower number
mobilized CD45+/CD34-/c-kit+ cells, PTH compared with G-CSF ([1]; peripheral blood, p<0.05): 49-50%
subtypes of CD45+/CD34- cells in bone marrow ([2]; PTH day 6, G-CSF): significant decrease
subtypes of CD45+CD34+ cells in bone marrow ([2]; PTH day 6 or day 14, G-CSF vs control group): no significant change
anterior (free LV) wall thickness (infarcted left ventricle; day 6): 0.58 mm
cellular density in the granulation tissue (infarcted left ventricle; day 6): 3317±171 /mm^2
LV-infarct size (area of necrosis and granulation tissue) (infarcted left ventricle): 37%
LV-infarct size (area of necrosis and granulation tissue) (infarcted left ventricle; listed as rPTH(1-34)): 37.3±4.9%
anterior (free LV) wall thickness (infarcted left ventricle; day 30): 0.22 mm
frequency of large LV-aneurysms (infarcted left ventricle; day 30, vs saline): lower frequency
infarct size (area of fibrosis) (infarcted left ventricle; day 30 after LAD occlusion): 23.3±4.6% and 23%
survival rate (myocardial infarction): 60%
survival rate (myocardial infarction; listed as rPTH (1-34)): 60.0%
angiogenesis (CD31 positive vessels): significantly increased
